Molecules are shown by their SMILES.

This note sets out measurements from US20250263404A1, “AMINOPYRIDINES AS ACTIVATORS OF PI3 KINASE” (UCL Business Ltd, priority 2021, published 2025).

One data set deals with PI3Kα (Homo sapiens, UniProt P42336). Briefly: ADP-Glo in vitro lipid kinase assay, PI3Kα. Format: biochemical. Particulars: for EC50: in vitro PI3Kα activation; for Max. activity relative to pY ctrl: relative to pY control. Also noted: Full-length p110α was expressed in a complex with full-length p85α (for biochemistry and HDX-MS); 6xHis followed by TEV protease site (N); made in house; host or cells: Spodoptera frugiperda Sf9 (baculovirus co-infection; plasmids OP831 and OP809). The procedure:
The effect of 1938 on the in vitro lipid kinase activity of p85α in complex with p110α, p110β or p110δ (further referred to as PI3Kα, PI3Kβ and PI3Kδ) was tested. As a positive control, a bis-phosphorylated phosphopeptide (a PDGF-receptor-derived peptide phosphorylated on Tyr-740 and Tyr-751, hereafter referred to as pY peptide) was used to mimic engagement of the p85α SH2 domains with tyrosine-phosphorylated peptides in membrane-bound receptors and adaptor proteins, known to activate the PI3Kα complex.
Kinase reactions were performed with ADP-Glo kinase assay kit (Promega Corporation). The enzyme, substrate and compounds were diluted in reaction buffer (20 mM HEPES, 50 mM NaCl, 50 mM KCl, 3 mM MgCl2, 1 mM EGTA, 1 mM TCEP, pH 7.4). Final concentrations of PI3Kα and PI3Kδ used were 25 nM and 50 nM for PI3Kβ. Liposomes (5% brain PI(4,5)P2, 20% brain phosphatidylserine, 45% brain phosphatidylethanolamine, 15% brain phosphatidylcholine, 10% cholesterol, 5% sphingomyelin (Avanti Polar Lipids)) were used at a final concentration of 1 mg/ml.
For compound profiling, the reaction mixture contained 2 μl PI3K enzyme, 2 μl compound and/or pY and 2 μl of liposome substrate mixed with ATP. ATP was used at a final concentration of 500 μM for PI3Kα and PI3Kβ and at 200 μM for PI3Kδ, unless otherwise stated. The final DMSO concentration in the assay was 1%. The experiments were performed at room temperature for 3 h using 384 white-polystyrene plates (Corning #3824) before addition of 6 μl of ADP-Glo R1 to terminate the reaction. The plate was incubated for 45 min, followed by addition of 12 μl of ADP-Glo R2 and incubated further for 60 min in the dark. Luminescence was read using a Sense (Hidex) plate reader. […] All analyses were performed using GraphPad Prism 7.
For characterisation of the effects of 1938 on in vitro PI3K enzymology, all reactions were performed at room temperature with 384 white-polystyrene plates (Corning #3574). The final DMSO concentration in the assay was between 0.5%-1.8%. The reaction mixture contained 2 μl PI3K enzyme, 2 μl compound and/or pY and 2 μl of liposome substrate mixed with ATP. ATP was used at a final concentration of 200 μM, unless otherwise stated. The enzyme and compounds were pre-incubated for 10 min prior to addition of substrate. The reaction was allowed to proceed for 45 min at room temperature, before addition of 6 μl of ADP-Glo R1 to terminate the reaction. The plate was incubated for 60 min, followed by addition of 12 μl of ADP-Glo R2 and incubated further for 60 min in the dark. For enzyme kinetic calculations, data was expressed as velocity (pmol of ADP generated/sec). ADP-ATP standard curves were performed according to the manufacturer's instructions, and all analyses were performed using GraphPad Prism 8.

Data set [1] is described as follows: Solubility (comparison in words). Format: physicochemical.

Chain of PI3Kα (P42336 whole entry, the tested form may be a part): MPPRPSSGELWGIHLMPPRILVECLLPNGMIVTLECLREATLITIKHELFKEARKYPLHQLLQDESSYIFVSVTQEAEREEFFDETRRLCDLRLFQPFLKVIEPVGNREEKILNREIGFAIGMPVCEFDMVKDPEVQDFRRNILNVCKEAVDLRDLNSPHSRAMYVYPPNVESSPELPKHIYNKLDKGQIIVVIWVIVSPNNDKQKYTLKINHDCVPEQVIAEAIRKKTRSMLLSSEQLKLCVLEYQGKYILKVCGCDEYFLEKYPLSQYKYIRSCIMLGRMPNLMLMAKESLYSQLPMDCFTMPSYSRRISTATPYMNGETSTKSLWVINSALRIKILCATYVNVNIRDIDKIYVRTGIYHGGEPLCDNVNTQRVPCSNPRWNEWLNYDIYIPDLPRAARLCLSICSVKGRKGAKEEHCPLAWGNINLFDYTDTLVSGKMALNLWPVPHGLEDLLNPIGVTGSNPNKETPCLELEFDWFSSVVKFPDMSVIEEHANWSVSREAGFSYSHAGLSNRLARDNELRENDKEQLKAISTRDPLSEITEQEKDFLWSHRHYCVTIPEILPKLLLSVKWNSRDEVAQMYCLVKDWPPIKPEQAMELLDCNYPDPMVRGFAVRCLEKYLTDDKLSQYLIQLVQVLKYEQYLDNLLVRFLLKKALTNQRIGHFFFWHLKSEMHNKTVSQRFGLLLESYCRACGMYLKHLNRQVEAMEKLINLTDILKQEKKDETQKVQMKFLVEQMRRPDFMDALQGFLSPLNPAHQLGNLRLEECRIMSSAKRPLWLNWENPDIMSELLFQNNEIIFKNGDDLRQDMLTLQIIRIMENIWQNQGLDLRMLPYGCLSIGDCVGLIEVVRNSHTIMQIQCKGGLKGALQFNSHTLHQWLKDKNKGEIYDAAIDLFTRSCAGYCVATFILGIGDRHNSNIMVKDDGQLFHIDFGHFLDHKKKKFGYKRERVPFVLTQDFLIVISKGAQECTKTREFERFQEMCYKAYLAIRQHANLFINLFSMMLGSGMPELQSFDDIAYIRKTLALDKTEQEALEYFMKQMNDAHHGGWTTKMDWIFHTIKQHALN
Chain of PI3Kα (P27986 whole entry partner, the tested form may be a part): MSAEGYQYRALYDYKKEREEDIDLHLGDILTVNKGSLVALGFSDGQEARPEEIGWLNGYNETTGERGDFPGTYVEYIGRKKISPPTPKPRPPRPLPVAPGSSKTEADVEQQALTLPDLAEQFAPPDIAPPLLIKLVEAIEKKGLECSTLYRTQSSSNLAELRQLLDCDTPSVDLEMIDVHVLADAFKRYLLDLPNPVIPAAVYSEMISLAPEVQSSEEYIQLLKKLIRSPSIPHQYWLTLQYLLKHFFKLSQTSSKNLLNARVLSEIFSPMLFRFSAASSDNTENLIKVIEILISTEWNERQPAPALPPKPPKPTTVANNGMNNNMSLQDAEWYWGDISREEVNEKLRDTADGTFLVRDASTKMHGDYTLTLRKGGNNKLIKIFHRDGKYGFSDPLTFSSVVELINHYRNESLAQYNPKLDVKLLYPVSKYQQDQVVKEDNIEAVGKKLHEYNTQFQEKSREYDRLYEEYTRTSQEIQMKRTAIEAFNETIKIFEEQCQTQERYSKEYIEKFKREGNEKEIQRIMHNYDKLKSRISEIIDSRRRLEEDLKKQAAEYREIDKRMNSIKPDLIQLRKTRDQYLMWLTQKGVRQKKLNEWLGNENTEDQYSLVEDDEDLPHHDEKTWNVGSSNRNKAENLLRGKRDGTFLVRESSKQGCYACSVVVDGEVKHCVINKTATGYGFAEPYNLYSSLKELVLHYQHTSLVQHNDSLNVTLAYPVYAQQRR

With `COc1cc(Nc2cc(Nc3cccc4c3N(C(C)=O)CC4)ccn2)cc(OC)c1OC` [Example 1887], at PI3Kα, the “activity compared with 1938 (in words)” value is “activities comparable with 1938”; the concentration for a half-maximal effect (EC50) (as a rule, the concentration at which the effect is half-maximal) was 36 ± 5 µM; the “Max. activity relative to 1938” value is reported as 80%; the “Max. activity relative to pY ctrl” value was determined as 318 ± 68%.

On to `COc1cc(N2CCN(C)CC2)ccc1Nc1cc(Nc2cccc3c2N(C(C)=O)CC3)ccn1` [Example 1889], for which, on PI3Kα, the “activity compared with 1938 (in words)” value is given as “activities comparable with 1938”, the EC50 is 56 ± 24 µM, the “Max. activity relative to 1938” value was determined as 102% and the “Max. activity relative to pY ctrl” value is listed as 408 ± 110%.

`CC(=O)N1CCc2cccc(Nc3ccnc(Nc4ccccc4)c3)c21` [Example 2016]: the “solubility compared with 1938 (in words)” value in data set [1] is recorded as “less soluble than 1938”. In addition, on PI3Kα, the “Max. activity relative to 1938” value came to 9% and the “Max. activity relative to pY ctrl” value stood at 36 ± 8%. Besides, the reduction in activity result at PI3Kα (structure-activity comparison with 1938) is “more than 90%”.

`CCN1CCN(c2ccc(Nc3cc(Nc4ccncn4)ccn3)cc2)CC1` [Example 2106]: on PI3Kα, the “Max. activity relative to 1938” value worked out at 4% and the “Max. activity relative to pY ctrl” value is reported as 14 ± 13%.

`CCN1CCN(c2ccc(Nc3nccc(Nc4cccc5c4N(C(C)=O)CC5)n3)cc2)CC1` [Example 2152]: on PI3Kα, the “Max. activity relative to 1938” value turned out to be 4% and the “Max. activity relative to pY ctrl” value was found to be 16 ± 8%.
